O=C(O)c1cccc(C(=O)O)c1
Conditions	solubility (mole fraction)
in 1,2-diethoxyethane, 293.3 K	0.00265
in 1,2-diethoxyethane, 303.15 K	0.00293
in 1,2-diethoxyethane, 313.15 K	0.0033
in 1,2-diethoxyethane, 322.75 K	0.00376
in 1,2-diethoxyethane, 332.65 K	0.00433
in 1,2-diethoxyethane, 342.45 K	0.00502
in THF, 293.35 K	0.0141
in THF, 303.15 K	0.0154
in THF, 313.45 K	0.0169
in THF, 322.85 K	0.0185
in THF, 328.75 K	0.0196
in acetophenone, 303.15 K	0.000725
in acetophenone, 313.15 K	0.000858
in acetophenone, 323.05 K	0.00105
in acetophenone, 332.95 K	0.00135
in acetophenone, 342.95 K	0.00175
in cyclohexanone, 293.35 K	0.00239
in cyclohexanone, 303.15 K	0.00302
in cyclohexanone, 313.15 K	0.00385
in cyclohexanone, 322.75 K	0.00469
in cyclohexanone, 332.75 K	0.00571
in cyclohexanone, 342.85 K	0.00697

O=C(O)c1ccccc1C(=O)O
Conditions	solubility (mole fraction)
in 1,2-diethoxyethane, 293.15 K	0.0154
in 1,2-diethoxyethane, 303.25 K	0.0177
in 1,2-diethoxyethane, 313.2 K	0.02
in 1,2-diethoxyethane, 323.05 K	0.0228
in 1,2-diethoxyethane, 333.15 K	0.0261
in 1,2-diethoxyethane, 343.05 K	0.0302
in THF, 293.25 K	0.0697
in THF, 303.15 K	0.0754
in THF, 313.45 K	0.0826
in THF, 323.15 K	0.0899
in THF, 329.05 K	0.0949
in acetophenone, 303.35 K	0.0056
in acetophenone, 313.35 K	0.00724
in acetophenone, 323.35 K	0.00933
in acetophenone, 332.95 K	0.0119
in acetophenone, 343.55 K	0.0152
in cyclohexanone, 293.15 K	0.0176
in cyclohexanone, 303.15 K	0.0212
in cyclohexanone, 313.15 K	0.0257
in cyclohexanone, 323.15 K	0.031
in cyclohexanone, 333.15 K	0.037
in cyclohexanone, 343.4 K	0.0459

O=C(O)c1ccc(C(=O)O)cc1
Conditions	solubility (mole fraction)
in 1,2-diethoxyethane, 293.15 K	0.000214
in 1,2-diethoxyethane, 303.3 K	0.000251
in 1,2-diethoxyethane, 313.25 K	0.000294
in 1,2-diethoxyethane, 323.35 K	0.000344
in 1,2-diethoxyethane, 333.65 K	0.000403
in 1,2-diethoxyethane, 343.55 K	0.000477
in THF, 293.15 K	0.000882
in THF, 303.15 K	0.000995
in THF, 313.45 K	0.00115
in THF, 323.35 K	0.0014
in THF, 329.35 K	0.00164
in acetophenone, 303.15 K	1.07e-05
in acetophenone, 313.15 K	1.87e-05
in acetophenone, 323.15 K	3.47e-05
in acetophenone, 332.85 K	6.17e-05
in acetophenone, 343.3 K	0.000116
in cyclohexanone, 293.15 K	0.000167
in cyclohexanone, 303.15 K	0.000183
in cyclohexanone, 313.15 K	0.000231
in cyclohexanone, 323.3 K	0.000302
in cyclohexanone, 333.4 K	0.000385
in cyclohexanone, 343.85 K	0.00053

— BigSolDB 2.1
